According to patent US10487093B2, “Heterocyclic compounds, in particular 2-oxo-4,4,5,5,6,6,7,7-octahydrobenzoxazole derivatives, and their use as antibacterial compounds” (priority 2016, dated 2019):
In brackets after ≈: the same amount, converted by molar mass.

What was measured:
[1] = tested on: human hepatic cell line (HepG2 ATCC HB-8065); test: Human cell viability assay (CellTiter-Glo); settings: Homo sapiens, HepG2, 24 h, read-out: IC50 (μg/mL) HepG2
[2] = tested on: Staphylococcus aureus ATCC 29213; test: MIC, broth microdilution (CLSI) versus planktonic bacteria; assay type: cell-based; settings: ATCC29213; Staphylococcus aureus ATCC 29213; 16-20 h; mode of three independent experiments; read-out: MIC, Sa ATCC 29213
[3] = tested on: Streptococcus pneumoniae ATCC 49619; test: as above; assay type: cell-based; settings: ATCC49619; Streptococcus pneumoniae ATCC 49619; 16-20 h; mode of three independent experiments; read-out: MIC, Sp ATCC 49619
[4] = tested on: Haemophilus influenzae ATCC 49247; test: as above; assay type: cell-based; settings: ATCC49247; Haemophilus influenzae ATCC 49247; 16-20 h; mode of three independent experiments; read-out: MIC, Hi ATCC 49247
[5] = tested on: Enterobacter cloacae NCTC 13406; test: as above; assay type: cell-based; settings: NCTC13406; Enterobacter cloacae NCTC 13406; 16-20 h; mode of three independent experiments; read-out: MIC, Ecl NCTC 13406
[6] = tested on: Mycobacterium smegmatis ATCC 19420; test: as above; assay type: cell-based; settings: Mycolicibacterium smegmatis, ATCC19420, 16-20 h, mode of three independent experiments, read-out: MIC, Ms ATCC 19420
[7] = tested on: Acinetobacter baumannii NCTC 13420; test: as above; assay type: cell-based; settings: NCTC13420; Acinetobacter baumannii NCTC 13420; 16-20 h; mode of three independent experiments; read-out: MIC, Ab NCTC 13420
[8] = tested on: Pseudomonas aeruginosa ATCC 27853; test: as above; assay type: cell-based; settings: ATCC27853; Pseudomonas aeruginosa ATCC 27853; 16-20 h; mode of three independent experiments; read-out: MIC, Pa ATCC 27853
[9] = tested on: Escherichia coli ATCC 25922; test: as above; assay type: cell-based; settings: ATCC25922; Escherichia coli ATCC 25922; 16-20 h; mode of three independent experiments; read-out: MIC, Ec ATCC 25922
E. coli ATCC BAA-2452 = test: as above; assay type: cell-based; settings: Escherichia coli ATCC BAA-2452; 16-20 h; mode of three independent experiments; read-out: MIC, Ec ATCC BAA 2452
E. coli NCTC 13476 = test: as above; assay type: cell-based; settings: NCTC13476; Escherichia coli NCTC 13476; 16-20 h; mode of three independent experiments; read-out: MIC, Ec NCTC 13476
E. coli MG1655 D87G = assay type: cell-based, Escherichia coli; settings: compared to the isogenic parent strain E. coli MG1655; D87G mutation on DNA gyrase subunit GyrA
E. coli MG1655 S83L = assay type: cell-based, Escherichia coli; settings: compared to the isogenic parent strain E. coli MG1655; S83L mutation on DNA gyrase subunit GyrA
[10] = tested on: Enterococcus faecalis ATCC 29212; test: MIC, broth microdilution (CLSI) versus planktonic bacteria; assay type: cell-based; settings: ATCC29212, 16-20 h, mode of three independent experiments, read-out: MIC, Ef ATCC 29212
[11] = tested on: Acinetobacter baumannii ATCC 19606; test: as above; assay type: cell-based; settings: ATCC19606; Acinetobacter baumannii ATCC 19606; 16-20 h; mode of three independent experiments; read-out: MIC, Ab ATCC 19606
[12] = tested on: fluoroquinolone-resistant Enterococcus faecium ATCC 700221; test: as above; assay type: cell-based; settings: ATCC700221, 16-20 h, mode of three independent experiments, read-out: MIC, Efm ATCC 700221
E. coli MG1655 = test: as above; assay type: cell-based, Escherichia coli; settings: Escherichia coli, MG1655, read-out: MIC, Ec MG1655 WT
[13] = tested on: Enterococcus faecium ATCC 19434; test: as above; assay type: cell-based; settings: ATCC19434, 16-20 h, mode of three independent experiments, read-out: MIC, Efm ATCC 19434

SMILES	IC50 [1] [µg/mL]	MIC [2] [µg/mL]	MIC [3] [µg/mL]	MIC [4] [µg/mL]	MIC [5] [µg/mL]	MIC [6] [µg/mL]	MIC [7] [µg/mL]	MIC [8] [µg/mL]	MIC [9] [µg/mL]	MIC (E. coli ATCC BAA-2452) [µg/mL]	MIC (E. coli NCTC 13476) [µg/mL]	Fold increase in MIC, E. coli MG1655 D87G (E. coli MG1655 D87G) [fold]	Fold increase in MIC, E. coli MG1655 S83L (E. coli MG1655 S83L) [fold]	MIC [10] [µg/mL]	MIC [11] [µg/mL]	MIC [12] [µg/mL]	MIC (E. coli MG1655) [µg/mL]	MIC [13] [µg/mL]
NS(=O)(=O)c1ccc(Oc2ccc3ccc(=O)n(CCN[C@@H]4CC[C@@H]5[C@@H](C4)OC(=O)N5c4ccc5c(n4)NC(=O)CO5)c3n2)cc1 [Compound 8, 4-{[8-(2-{[(3aR,6R,7aR)-2-oxo-3-{3-oxo-2H,3H,4H-pyrido[3,2-b][1,4]oxazin-6-yl}-octahydro-1,3-benzoxazol-6-yl]amino}ethyl)-7-oxo-7,8-dihydro-1,8-naphthyridin-2-yl]oxy}benzene-1-sulphonamide]	10 to 100 (≈ 15.4 to 154 µM)	< 1	1 to 10 (≈ 1.54 to 15.4 µM)	< 1	10 to 100 (≈ 15.4 to 154 µM)	< 1	10 to 100 (≈ 15.4 to 154 µM)	10 to 100 (≈ 15.4 to 154 µM)	1 to 10 (≈ 1.54 to 15.4 µM)	–	–	–	–	–	–	–	–	–
CCCOc1ccc2ccc(=O)n(CCN[C@H]3CC[C@H]4[C@H](C3)OC(=O)N4c3ccc4c(n3)NC(=O)CO4)c2c1 [Compound 91, 1-(2-{[(3aS,6S,7aS)-2-oxo-3-{3-oxo-2H,3H,4H-pyrido[3,2-b][1,4]oxazin-6-yl}-octahydro-1,3-benzoxazol-6-yl]amino}ethyl)-7-propoxy-1,2-dihydroquinolin-2-one]	10 to 100 (≈ 18.7 to 187 µM)	< 1	< 1	< 1	1 to 10 (≈ 1.87 to 18.7 µM)	–	< 1	10 to 100 (≈ 18.7 to 187 µM)	< 1	< 1	1 to 10 (≈ 1.87 to 18.7 µM)	1	0.5	1 to 10 (≈ 1.87 to 18.7 µM)	< 1	1 to 10 (≈ 1.87 to 18.7 µM)	< 1	1 to 10 (≈ 1.87 to 18.7 µM)
COc1ccc2ncc(=O)n(CCNC3CCC4C(C3)OC(=O)N4c3ccc4c(n3)NC(=O)CO4)c2n1 (stereo in doubt) [Compound 43, (3aR,6R,7aR)-6-[(2-{6-methoxy-3-oxo-3H,4H-pyrido[2,3-b]pyrazin-4-yl}ethyl)amino]-3-{3-oxo-2H,3H,4H-pyrido[3,2-b][1,4]oxazin-6-yl}-octahydro-1,3-benzoxazol-2-one]	> 100	< 1	< 1	< 1	< 1	–	< 1	< 1	< 1	< 1	< 1	0.5	1	< 1	< 1	< 1	< 1	< 1
N#Cc1cccc(-c2cccc(CN[C@@H]3CC[C@@H]4[C@@H](C3)OC(=O)N4c3ccc4c(n3)NC(=O)CO4)c2O)n1 [Compound 40, 6-[3-({[(3aR,6R,7aR)-2-oxo-3-{3-oxo-2H,3H,4H-pyrido[3,2-b][1,4]oxazin-6-yl}-octahydro-1,3-benzoxazol-6-yl]amino}methyl)-2-hydroxyphenyl]pyridine-2-carbonitrile]	10 to 100 (≈ 19.5 to 195 µM)	< 1	1 to 10 (≈ 1.95 to 19.5 µM)	< 1	< 1	–	< 1	< 1	< 1	< 1	< 1	1	1	< 1	< 1	< 1	< 1	< 1
COc1cnc2ccc(=O)n(CCN[C@H]3CC[C@H]4[C@H](C3)OC(=O)N4c3ccc4c(n3)NC(=O)CS4)c2c1 [Compound 81, 1-(2-{[(3aS,6S,7aS)-2-oxo-3-{3-oxo-2H,3H,4H-pyrido[3,2-b][1,4]thiazin-6-yl}-octahydro-1,3-benzoxazol-6-yl]amino}ethyl)-7-methoxy-1,2-dihydro-1,5-naphthyridin-2-one]	10 to 100 (≈ 19.1 to 191 µM)	< 1	< 1	< 1	< 1	–	< 1	1 to 10 (≈ 1.91 to 19.1 µM)	< 1	< 1	< 1	1	1	< 1	< 1	< 1	< 1	< 1
N#Cc1ccc2ccc(=O)n(CCN[C@@H]3CC[C@@H]4[C@@H](C3)OC(=O)N4c3ccc4c(n3)NC(=O)CO4)c2c1 [Compound 59, 1-(2-{[(3aR,6R,7aR)-2-oxo-3-{3-oxo-2H,3H,4H-pyrido[3,2-b][1,4]oxazin-6-yl}-octahydro-1,3-benzoxazol-6-yl]amino}ethyl)-2-oxo-1,2-dihydroquinoline-7-carbonitrile]	10 to 100 (≈ 20 to 200 µM)	< 1	< 1	< 1	< 1	–	< 1	< 1	< 1	< 1	< 1	1	1	< 1	< 1	< 1	< 1	< 1
COc1cccc(-c2cccc(CN[C@@H]3CC[C@@H]4[C@@H](C3)OC(=O)N4c3ccc4c(n3)NC(=O)CO4)c2)n1 [Compound 80, (3aR,6R,7aR)-6-({[3-(6-methoxypyridin-2-yl)phenyl]methyl}amino)-3-{3-oxo-2H,3H,4H-pyrido[3,2-b][1,4]oxazin-6-yl}-octahydro-1,3-benzoxazol-2-one]	10 to 100 (≈ 19.9 to 199 µM)	< 1	1 to 10 (≈ 1.99 to 19.9 µM)	< 1	1 to 10 (≈ 1.99 to 19.9 µM)	–	< 1	1 to 10 (≈ 1.99 to 19.9 µM)	< 1	< 1	< 1	1	1	< 1	< 1	1 to 10 (≈ 1.99 to 19.9 µM)	< 1	1 to 10 (≈ 1.99 to 19.9 µM)
